One data set deals with T1, CYP1A2 (Homo sapiens, UniProt P05177).
T1 sequence (P05177 1-516): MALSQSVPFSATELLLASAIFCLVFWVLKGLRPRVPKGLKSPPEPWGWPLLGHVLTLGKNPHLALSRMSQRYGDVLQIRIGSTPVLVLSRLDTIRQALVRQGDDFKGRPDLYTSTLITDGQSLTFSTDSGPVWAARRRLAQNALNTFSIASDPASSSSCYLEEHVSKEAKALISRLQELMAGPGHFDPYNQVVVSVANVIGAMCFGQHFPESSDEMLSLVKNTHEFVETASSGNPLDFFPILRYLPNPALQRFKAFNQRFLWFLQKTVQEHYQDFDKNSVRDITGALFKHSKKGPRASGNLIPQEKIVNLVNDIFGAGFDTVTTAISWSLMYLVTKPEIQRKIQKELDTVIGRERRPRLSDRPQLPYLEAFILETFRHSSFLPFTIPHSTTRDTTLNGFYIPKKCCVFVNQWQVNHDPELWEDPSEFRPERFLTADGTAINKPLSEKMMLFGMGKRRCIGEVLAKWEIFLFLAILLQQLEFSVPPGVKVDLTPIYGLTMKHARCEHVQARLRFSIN
In words: Cytochrome P450 inhibition assay in HLMs. In kind it is in vitro ADME. Conditions: Phenacetin O-deethylation, pooled HLMs, up to 50 μM. How it is done:
(§1) Cytochrome P450 Inhibition Assay: […] All experiments were performed in triplicate. Phenacetin O-deethylase, coumarin hydroxylase, bupropion hydroxylase, amodiaquine N-deethylase, tolbutamide 4-hydroxylase, S-mephenytoin hydroxylase, dextromethorphan O-demethylase, chlorozoxazone 6-hydroxylase, and midazolam 1’-hydroxylase activities were determined as probe activities for CYP1A2, CYP2A6, CYP2B6, CYP2C8, CYP2C9, CYP2C19, CYP2D6, CYP2E1, and CYP3A, respectively, using cocktail incubation and tandem mass spectrometry, as described previously^2,3.

A further data set concerns the target T2, CYP2A6 (Homo sapiens, UniProt P11509).
T2 construct: tissue Xenotech H0630; host or cells: pooled human liver microsomes
T2 sequence (P11509 1-494): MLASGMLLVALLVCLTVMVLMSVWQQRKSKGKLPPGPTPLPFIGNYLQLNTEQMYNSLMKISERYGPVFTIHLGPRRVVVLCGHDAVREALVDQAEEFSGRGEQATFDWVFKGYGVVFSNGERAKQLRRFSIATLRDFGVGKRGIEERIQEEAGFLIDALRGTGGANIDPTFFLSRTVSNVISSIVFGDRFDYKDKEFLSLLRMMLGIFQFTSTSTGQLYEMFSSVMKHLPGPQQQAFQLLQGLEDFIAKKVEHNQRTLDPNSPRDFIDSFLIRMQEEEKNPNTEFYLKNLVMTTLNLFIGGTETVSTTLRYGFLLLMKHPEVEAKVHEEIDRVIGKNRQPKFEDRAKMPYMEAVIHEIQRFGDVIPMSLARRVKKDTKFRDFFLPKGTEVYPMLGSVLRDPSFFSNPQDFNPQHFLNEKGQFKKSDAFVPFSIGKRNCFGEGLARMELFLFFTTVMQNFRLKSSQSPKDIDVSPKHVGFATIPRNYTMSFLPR
In words: Cytochrome P450 inhibition assay in HLMs. Type of data set: in vitro ADME. Conditions: Coumarin 7-hydroxylation, pooled HLMs, up to 50 μM. As for the experimental part: as §1

In a further data set the target is T3, CYP2B6 (Homo sapiens, UniProt P20813).
T3 construct: tissue Xenotech H0630; host or cells: pooled human liver microsomes
T3 sequence (P20813 1-491): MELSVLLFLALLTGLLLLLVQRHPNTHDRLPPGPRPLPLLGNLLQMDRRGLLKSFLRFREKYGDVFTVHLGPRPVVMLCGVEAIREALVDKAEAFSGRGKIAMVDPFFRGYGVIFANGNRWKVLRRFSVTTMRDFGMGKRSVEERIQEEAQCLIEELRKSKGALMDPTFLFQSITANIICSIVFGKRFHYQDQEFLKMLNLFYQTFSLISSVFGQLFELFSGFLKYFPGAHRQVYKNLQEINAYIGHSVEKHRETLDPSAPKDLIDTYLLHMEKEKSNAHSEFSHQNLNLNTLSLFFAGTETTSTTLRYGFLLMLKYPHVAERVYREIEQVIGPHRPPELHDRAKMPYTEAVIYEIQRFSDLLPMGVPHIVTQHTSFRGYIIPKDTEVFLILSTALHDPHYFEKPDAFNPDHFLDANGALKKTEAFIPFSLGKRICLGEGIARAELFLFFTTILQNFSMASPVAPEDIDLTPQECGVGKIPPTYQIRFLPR
In words: Cytochrome P450 inhibition assay in HLMs. In kind it is in vitro ADME. Conditions: Bupropion hydroxylation, pooled HLMs, up to 50 μM. As for the experimental part: as §1

A further data set addresses T4, CYP2C9 (Homo sapiens, UniProt P11712).
T4 construct: tissue Xenotech H0630; host or cells: pooled human liver microsomes
In words: Cytochrome P450 inhibition assay in HLMs. In kind it is in vitro ADME. To be noted: Diclofenac 4-hydroxylation, pooled HLMs, up to 50 μM. As for the experimental part:
as §1

For a further data set, the target named is T5, CYP2D6 (Homo sapiens, UniProt P10635).
T5 construct: tissue Xenotech H0630; host or cells: pooled human liver microsomes
T5 sequence (P10635 whole entry): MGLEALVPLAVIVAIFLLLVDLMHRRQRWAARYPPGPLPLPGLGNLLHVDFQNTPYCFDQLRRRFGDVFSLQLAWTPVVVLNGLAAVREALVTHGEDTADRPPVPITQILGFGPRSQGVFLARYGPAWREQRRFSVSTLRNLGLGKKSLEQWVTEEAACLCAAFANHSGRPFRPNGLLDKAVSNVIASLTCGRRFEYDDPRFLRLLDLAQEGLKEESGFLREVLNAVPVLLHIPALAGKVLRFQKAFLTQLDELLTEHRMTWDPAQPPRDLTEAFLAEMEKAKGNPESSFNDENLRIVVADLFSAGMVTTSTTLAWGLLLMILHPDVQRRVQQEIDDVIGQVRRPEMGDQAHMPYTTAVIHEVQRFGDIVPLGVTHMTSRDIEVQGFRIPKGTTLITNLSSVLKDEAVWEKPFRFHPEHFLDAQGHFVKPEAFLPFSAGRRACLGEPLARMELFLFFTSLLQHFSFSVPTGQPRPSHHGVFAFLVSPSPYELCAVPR
In words: Cytochrome P450 inhibition assay in HLMs. Type of data set: in vitro ADME. Conditions: Dextromethorphan O-demethylation, pooled HLMs, up to 50 μM. How it is done: as §1

For the next data set, the target named is T6, CYP2E1 (Homo sapiens, UniProt P05181).
T6 construct: tissue Xenotech H0630; host or cells: pooled human liver microsomes
T6 sequence (P05181 whole entry): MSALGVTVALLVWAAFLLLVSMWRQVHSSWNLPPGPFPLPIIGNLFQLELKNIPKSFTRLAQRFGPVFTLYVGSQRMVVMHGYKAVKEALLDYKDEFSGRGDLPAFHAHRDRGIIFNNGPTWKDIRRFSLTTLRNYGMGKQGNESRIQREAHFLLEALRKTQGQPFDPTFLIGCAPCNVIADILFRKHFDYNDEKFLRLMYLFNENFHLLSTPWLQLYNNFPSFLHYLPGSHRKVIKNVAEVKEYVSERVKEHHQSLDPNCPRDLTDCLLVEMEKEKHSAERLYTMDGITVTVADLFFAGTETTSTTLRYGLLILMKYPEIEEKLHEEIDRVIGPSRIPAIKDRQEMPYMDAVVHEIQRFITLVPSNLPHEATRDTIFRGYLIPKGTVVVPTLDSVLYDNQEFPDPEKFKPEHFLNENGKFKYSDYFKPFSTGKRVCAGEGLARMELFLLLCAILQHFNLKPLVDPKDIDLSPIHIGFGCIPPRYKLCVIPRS
In words: Cytochrome P450 inhibition assay in HLMs. In kind it is in vitro ADME. Conditions: Chlorozoxazone 6-hydroxylation, pooled HLMs, up to 50 μM. As for the experimental part:
as §1

A further data set concerns the target CYP3A (Homo sapiens, UniProt P08684). The data set is described as follows: Cytochrome P450 inhibition assay in HLMs. Type of data set: in vitro ADME. Conditions: pooled human liver microsomes, probe midazolam (1'-hydroxylation), up to 50 μM. How it is done:
as §1

Data set [1] concerns BLM-induced pulmonary fibrosis. The data set is described as follows: BLM-induced pulmonary fibrosis, Ashcroft scoring of lung sections. To be noted: BLM 30 mg/kg intratracheal; ACF-2 10 mg/kg i.p. every 2 days or NIDB 60 mg/kg/day in drinking water, 2 weeks; BLM-only 6.2. In kind it is in vivo, ICR mice. As for the experimental part: Male ICR mice received BLM (30 mg/kg, intratracheal). […] Fixed left lung lobes were paraffin-embedded, sectioned (4 μm), and stained with H&E or MT. A blinded pathologist graded pulmonary fibrosis on the 1-8 Ashcroft scale; representative images illustrate typical lesions. Colon samples were processed by the swiss-roll method, stained with H&E, and scored for inflammation and erosion, which were combined into a composite histological score. All animal studies were approved by the Institutional Animal Care and Use Committee of Jeju National University (Approval ID: 2024-0058) and conducted in compliance with institutional guidelines. Male ICR mice (6 weeks old, average body weight 27 g) were purchased from […] (South Korea) and housed under controlled temperature (22 ± 2 °C) and humidity (0.0 ± 15.0 %) on a 12 hr light-dark cycle with free access to food and water. […] Lung tissue: Left lung lobes were fixed in 4% paraformaldehyde for 24 h, dehydrated, and embedded in paraffin. Sections of 4 μm thickness were prepared, deparaffinized with xylene, and rehydrated in a graded ethanol series. H&E staining was performed using hematoxylin and eosin solutions, respectively. The severity of fibrosis was graded according to the Ashcroft scale (1-8), as evaluated by a pathologist blindly. Representative H&E images were chosen to illustrate the most characteristic pathology. […]

From paper PMC12721191, “Oxidative hypoxia drives TGF-β1–induced fibrosis under normoxia” (Redox Biology, 2025) come the findings set out here.

Each structure is given as a SMILES string.

Sequence of CYP3A (P08684 2-503): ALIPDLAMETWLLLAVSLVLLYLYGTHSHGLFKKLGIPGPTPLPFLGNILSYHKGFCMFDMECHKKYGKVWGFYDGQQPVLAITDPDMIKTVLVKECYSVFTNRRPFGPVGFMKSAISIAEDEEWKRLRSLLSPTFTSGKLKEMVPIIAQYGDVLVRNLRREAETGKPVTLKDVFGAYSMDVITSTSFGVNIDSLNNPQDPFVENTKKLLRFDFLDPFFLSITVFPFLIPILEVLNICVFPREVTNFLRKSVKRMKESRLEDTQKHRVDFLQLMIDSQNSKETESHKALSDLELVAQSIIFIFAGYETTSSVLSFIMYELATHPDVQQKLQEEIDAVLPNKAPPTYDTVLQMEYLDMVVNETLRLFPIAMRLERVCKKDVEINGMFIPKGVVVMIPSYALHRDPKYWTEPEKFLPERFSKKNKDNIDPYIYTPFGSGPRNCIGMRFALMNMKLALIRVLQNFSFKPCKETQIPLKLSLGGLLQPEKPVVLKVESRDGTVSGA
T4 sequence (P11712 whole entry): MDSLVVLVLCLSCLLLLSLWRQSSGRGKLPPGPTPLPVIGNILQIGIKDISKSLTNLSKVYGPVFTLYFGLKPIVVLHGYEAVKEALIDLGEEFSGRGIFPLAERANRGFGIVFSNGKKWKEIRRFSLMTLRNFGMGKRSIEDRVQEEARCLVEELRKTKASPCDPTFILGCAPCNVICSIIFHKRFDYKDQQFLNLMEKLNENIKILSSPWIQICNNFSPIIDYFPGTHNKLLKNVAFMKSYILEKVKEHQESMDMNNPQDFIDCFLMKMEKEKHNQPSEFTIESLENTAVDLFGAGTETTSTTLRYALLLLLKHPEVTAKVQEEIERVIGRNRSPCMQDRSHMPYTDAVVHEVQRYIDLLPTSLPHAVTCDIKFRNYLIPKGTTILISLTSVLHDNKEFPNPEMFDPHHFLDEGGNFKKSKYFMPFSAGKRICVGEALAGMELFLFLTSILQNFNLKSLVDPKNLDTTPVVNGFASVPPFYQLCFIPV

On to `COc1ccc(-c2c(-c3ccc(O)c(OC)c3)oc3cc(OC)c(OC)cc3c2=O)cc1` [ACF-2], for which the 50% inhibitory concentration (IC50) is more than 50 µM against CYP1A2; more than 50 µM against CYP2A6; more than 50 µM against CYP2B6; 18.1 ± 4.61 µM against CYP2C9; 40.2 ± 12.4 µM against CYP2D6; more than 50 µM at CYP2E1. The molecule further came in with an IC50 against CYP3A of more than 50 µM. Moreover, in data set [1], the “Average Ashcroft score” value was determined as 3.3.
